# Test results reported in ChEMBL document CHEMBL1671617, “Correlation of antimicrobial resistance with beta-lactamases, the OmpA-like porin, and efflux pumps in clinical isolates of Acinetobacter baumannii endemic to New York City” (2008).
# Experiments:
# Format in all cases: functional
# Acinetobacter baumannii [1] = test: Antimicrobial activity against ISAba1 linked with the blaOXA-51-type beta-lactamase harboring Acinetobacter baumannii zeta clonal group isolate 21 expressing ampC, ompA, adeB, adeM, aacC2, blaSHV-5 by Etest method
# Acinetobacter baumannii [2] = test: Antimicrobial activity against ISAba1 linked with the blaOXA-51-type beta-lactamase harboring Acinetobacter baumannii zeta clonal group isolate 22 expressing ampC, ompA, adeB, adeM, aadA1, aacA4, aacC2, blaSHV-5 by Etest method
# Acinetobacter baumannii [3] = test: Antimicrobial activity against ISAba1 linked with the blaOXA-51-type beta-lactamase harboring Acinetobacter baumannii beta clonal group isolate 13 expressing ompA, adeB, adeM, aacA4, blaSHV-5 by Etest method
# Acinetobacter baumannii [4] = test: Antimicrobial activity against Acinetobacter baumannii alpha clonal group isolate 4 expressing ampC, ompA, adeB, adeM, aacC1, aadA1 by Etest method
# Acinetobacter baumannii [5] = test: Antimicrobial activity against Acinetobacter baumannii nu clonal group isolate 32 expressing ampC, ompA, adeB, adeM, aadB, aadA2 by Etest method
# Acinetobacter baumannii [6] = test: Antimicrobial activity against ISAba1 linked with the blaOXA-51-type beta-lactamase harboring Acinetobacter baumannii zeta clonal group isolate 26 expressing ampC, ompA, adeB, adeM, aadA1, aacA4, aacC2, blaSHV-5 by Etest method
# Acinetobacter baumannii [7] = test: Antimicrobial activity against Acinetobacter baumannii nu clonal group isolate 34 expressing ampC, ompA, adeB, adeM by Etest method
# Acinetobacter baumannii [8] = test: Antimicrobial activity against ISAba1 linked with the blaOXA-51-type beta-lactamase harboring Acinetobacter baumannii zeta clonal group isolate 20 expressing ampC, ompA, adeB, adeM, aacC2 by Etest method
# Acinetobacter baumannii [9] = test: Antimicrobial activity against Acinetobacter baumannii unique clonal group isolate 38 expressing ampC, ompA, adeB, adeM by Etest method
# Acinetobacter baumannii [10] = test: Antimicrobial activity against ISAba1 linked with the blaOXA-51-type beta-lactamase harboring Acinetobacter baumannii zeta clonal group isolate 25 expressing ampC, ompA, adeB, adeM, aadA1, aacA4, aacC2, blaSHV-5 by Etest method
# Acinetobacter baumannii [11] = test: Antimicrobial activity against ISAba1 linked with the blaOXA-51-type beta-lactamase harboring Acinetobacter baumannii beta clonal group isolate 10 expressing ompA, adeB, adeM, aacA4, blaSHV-5 by Etest method
# Acinetobacter baumannii [12] = test: Antimicrobial activity against ISAba1 linked with the blaOXA-51-type beta-lactamase harboring Acinetobacter baumannii zeta clonal group isolate 23 expressing ampC, ompA, adeB, adeM, aadA1, aacA4, aacC2, aphA6 by Etest method
# Acinetobacter baumannii [13] = test: Antimicrobial activity against ISAba1 linked with the blaOXA-51-type beta-lactamase harboring Acinetobacter baumannii alpha clonal group isolate 6 expressing ampC, ompA, adeB, adeM, aacC1, aadA1 by Etest method
# Acinetobacter baumannii [14] = test: Antimicrobial activity against ISAba1 linked with the blaOXA-51-type beta-lactamase harboring Acinetobacter baumannii beta clonal group isolate 17 expressing ompA, adeB, adeM, aacA4, blaSHV-5 by Etest method
# Acinetobacter baumannii [15] = test: Antimicrobial activity against ISAba1 linked with the blaOXA-51-type beta-lactamase harboring Acinetobacter baumannii beta clonal group isolate 9 expressing ampC, ompA, adeB, adeM by Etest method
# Acinetobacter baumannii [16] = test: Antimicrobial activity against ISAba1 linked with the blaOXA-51-type beta-lactamase harboring Acinetobacter baumannii unique clonal group isolate 40 expressing ampC, ompA, adeB, adeM, aadA1, aacA4, aacC2, blaSHV-5 by Etest method
# Acinetobacter baumannii [17] = test: Antimicrobial activity against ISAba1 linked with the blaOXA-51-type beta-lactamase harboring Acinetobacter baumannii beta clonal group isolate 11 expressing ompA, adeB, adeM, blaSHV-5 by Etest method
# Acinetobacter baumannii [18] = test: Antimicrobial activity against Acinetobacter baumannii eta clonal group isolate 36 expressing ampC, ompA, adeB, adeM by Etest method
# Acinetobacter baumannii [19] = test: Antimicrobial activity against Acinetobacter baumannii nu clonal group isolate 31 expressing ampC, ompA, adeB, adeM, aadB, aadA2 by Etest method
# Acinetobacter baumannii [20] = test: Antimicrobial activity against Acinetobacter baumannii alpha clonal group isolate 5 expressing ampC, ompA, adeB, adeM, aacC1, aadA1 by Etest method
# Acinetobacter baumannii [21] = test: Antimicrobial activity against Acinetobacter baumannii nu clonal group isolate 33 expressing ampC, ompA, adeB, adeM by Etest method
# Acinetobacter baumannii [22] = test: Antimicrobial activity against ISAba1 linked with the blaOXA-51-type beta-lactamase harboring Acinetobacter baumannii beta clonal group isolate 15 expressing ompA, adeB, adeM, aacA4, blaSHV-5 by Etest method
# Acinetobacter baumannii [23] = test: Antimicrobial activity against ISAba1 linked with the blaOXA-51-type beta-lactamase harboring Acinetobacter baumannii alpha clonal group isolate 8 expressing ampC, ompA, adeB, adeM, aacC1, aadA1 by Etest method
# Acinetobacter baumannii [24] = test: Antimicrobial activity against Acinetobacter baumannii alpha clonal group isolate 3 expressing ampC, ompA, adeB, adeM, aacC1, aadA1 by Etest method
# Acinetobacter baumannii [25] = test: Antimicrobial activity against ISAba1 linked with the blaOXA-51-type beta-lactamase harboring Acinetobacter baumannii beta clonal group isolate 18 expressing ompA, adeB, adeM, aacA4, blaSHV-5 by Etest method
# Acinetobacter baumannii [26] = test: Antimicrobial activity against ISAba1 linked with the blaOXA-51-type beta-lactamase harboring Acinetobacter baumannii beta clonal group isolate 14 expressing ompA, adeB, adeM, aacA4, blaSHV-5 by Etest method
# Acinetobacter baumannii [27] = test: Antimicrobial activity against Acinetobacter baumannii lambda clonal group isolate 27 expressing ampC, ompA, adeB, adeM, aadB, aadA1 by Etest method
# Acinetobacter baumannii [28] = test: Antimicrobial activity against ISAba1 linked with the blaOXA-51-type beta-lactamase harboring Acinetobacter baumannii zeta clonal group isolate 19 expressing ampC, ompA, adeB, adeM, aacC2 by Etest method
# Acinetobacter baumannii [29] = test: Antimicrobial activity against ISAba1 linked with the blaOXA-51-type beta-lactamase harboring Acinetobacter baumannii beta clonal group isolate 16 expressing ompA, adeB, adeM, aacA4, blaSHV-5 by Etest method
# Acinetobacter baumannii [30] = test: Antimicrobial activity against ISAba1 linked with the blaOXA-51-type beta-lactamase harboring Acinetobacter baumannii beta clonal group isolate 12 expressing ompA, adeB, adeM, aacA4, aacC2, blaSHV-5 by Etest method
# Acinetobacter baumannii [31] = test: Antimicrobial activity against ISAba1 linked with the blaOXA-51-type beta-lactamase harboring Acinetobacter baumannii lambda clonal group isolate 28 expressing ampC, ompA, adeM, aadB, aadA1 by Etest method
# Acinetobacter baumannii [32] = test: Antimicrobial activity against ISAba1 linked with the blaOXA-51-type beta-lactamase harboring Acinetobacter baumannii lambda clonal group isolate 29 expressing ampC, ompA, adeM, aadB, aadA1 by Etest method
# Acinetobacter baumannii [33] = test: Antimicrobial activity against Acinetobacter baumannii unique clonal group isolate 39 expressing ampC, ompA, adeM by Etest method
# Acinetobacter baumannii [34] = test: Antimicrobial activity against ISAba1 linked with the blaOXA-51-type beta-lactamase harboring Acinetobacter baumannii zeta clonal group isolate 24 expressing ampC, ompA, adeB, adeM, aadA1, aacA4, aacC2, blaSHV-5 by Etest method
# Acinetobacter baumannii [35] = test: Antimicrobial activity against Acinetobacter baumannii eta clonal group isolate 35 expressing ampC, ompA, adeB, adeM by Etest method
# Acinetobacter baumannii [36] = test: Antimicrobial activity against Acinetobacter baumannii unique clonal group isolate 37 expressing ampC, ompA, adeB, adeM by Etest method
# Acinetobacter baumannii [37] = test: Antimicrobial activity against ISAba1 linked with the blaOXA-51-type beta-lactamase harboring Acinetobacter baumannii alpha clonal group isolate 1 expressing ampC, ompA, adeB, adeM by Etest method
# Acinetobacter baumannii [38] = test: Antimicrobial activity against ISAba1 linked with the blaOXA-51-type beta-lactamase harboring Acinetobacter baumannii alpha clonal group isolate 7 expressing ampC, ompA, adeB, adeM, blaSHV-5 by Etest method
# Acinetobacter baumannii [39] = test: Antimicrobial activity against ISAba1 linked with the blaOXA-51-type beta-lactamase harboring Acinetobacter baumannii lambda clonal group isolate 30 expressing ampC, ompA, adeB, adeM, aadB, aadA1 by Etest method
# Acinetobacter baumannii [40] = test: Antimicrobial activity against Acinetobacter baumannii alpha clonal group isolate 2 expressing ampC, ompA, adeB, adeM, aacC1, aadA1 by Etest method
smiles,measurement,setting,value
C[C@@H](O)[C@H]1C(=O)N2C(C(=O)O)=C(SCCNC=N)C[C@H]12 [IMIPENEM ANHYDROUS],MIC,Acinetobacter baumannii [1],6 µg/mL
same,MIC,Acinetobacter baumannii [2],16 µg/mL
same,MIC,Acinetobacter baumannii [3],> 16 µg/mL
same,MIC,Acinetobacter baumannii [4],0.38 µg/mL
same,MIC,Acinetobacter baumannii [5],0.25 µg/mL
same,MIC,Acinetobacter baumannii [6],> 1.5 µg/mL
same,MIC,Acinetobacter baumannii [7],0.25 µg/mL
same,MIC,Acinetobacter baumannii [8],1 µg/mL
same,MIC,Acinetobacter baumannii [9],0.19 µg/mL
same,MIC,Acinetobacter baumannii [10],> 1.5 µg/mL
same,MIC,Acinetobacter baumannii [11],16 µg/mL
same,MIC,Acinetobacter baumannii [12],> 32 µg/mL
same,MIC,Acinetobacter baumannii [13],3 µg/mL
same,MIC,Acinetobacter baumannii [14],> 16 µg/mL
same,MIC,Acinetobacter baumannii [15],12 µg/mL
same,MIC,Acinetobacter baumannii [16],> 32 µg/mL
same,MIC,Acinetobacter baumannii [17],> 32 µg/mL
same,MIC,Acinetobacter baumannii [18],0.25 µg/mL
same,MIC,Acinetobacter baumannii [19],0.25 µg/mL
same,MIC,Acinetobacter baumannii [20],0.38 µg/mL
same,MIC,Acinetobacter baumannii [21],0.25 µg/mL
same,MIC,Acinetobacter baumannii [22],> 16 µg/mL
same,MIC,Acinetobacter baumannii [23],6 µg/mL
same,MIC,Acinetobacter baumannii [24],0.38 µg/mL
same,MIC,Acinetobacter baumannii [25],12 µg/mL
same,MIC,Acinetobacter baumannii [26],> 16 µg/mL
same,MIC,Acinetobacter baumannii [27],4 µg/mL
same,MIC,Acinetobacter baumannii [28],1 µg/mL
same,MIC,Acinetobacter baumannii [29],> 16 µg/mL
same,MIC,Acinetobacter baumannii [30],32 µg/mL
same,MIC,Acinetobacter baumannii [31],16 µg/mL
same,MIC,Acinetobacter baumannii [32],16 µg/mL
same,MIC,Acinetobacter baumannii [33],0.25 µg/mL
same,MIC,Acinetobacter baumannii [34],> 1.5 µg/mL
same,MIC,Acinetobacter baumannii [35],0.25 µg/mL
same,MIC,Acinetobacter baumannii [36],0.5 µg/mL
same,MIC,Acinetobacter baumannii [37],2 µg/mL
same,MIC,Acinetobacter baumannii [38],4 µg/mL
same,MIC,Acinetobacter baumannii [39],8 µg/mL
same,MIC,Acinetobacter baumannii [40],0.38 µg/mL
